Reference: patent publication US9958439B2, “Carbohydrate detection” (RICHTER LIFE SCIENCE DEVELOPMENT AB, priority 2012, dated 2018)
Where two headings read alike, the source gives them in different places.

Key:
[1] = for RFU change (Correlation analysis) / RFU change (Signal deviation with increasing [Carbohydrate]): 3 μM probe; for RFU change (Correlation analysis): probe-specific excitation λ, emission 545 nm; for RFU change (Signal deviation with increasing [Carbohydrate]): spectral analysis, Excitation 300-500, Emission 545; for Gradient Parameters (gradient of regression line) / Linear relationship / Quality of Gradient: linear regression
In short: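 LCO probes at 3 μM mixed with serial twofold carbohydrate dilutions in dH2O (10–0.039 or 5–0.019 mg/ml, depending on carbohydrate). Excitation scanned 300–500 nm, emission read at 545 nm; detection defined as reproducible shift in λmax and/or RFU relative to negative control, with linear regression of RFU against concentration.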

[2] = In short: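 3 μM of each LCO probe was added to serial two-fold carbohydrate dilutions in water (10–0.039 or 5–0.019 mg/ml). Excitation spectra were scanned 300–500 nm with emission at 545 nm, in triplicate. Detection was defined as a reproducible shift in λmax and/or RFU versus negative control, with linear regression of RFU against concentration.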
[3] = for RFU change (Correlation analysis) / RFU change (Signal deviation with increasing [Carbohydrate]) / λmax change: 3 μM probe; for RFU change (Correlation analysis): probe-specific excitation λ, emission 545 nm; for RFU change (Signal deviation with increasing [Carbohydrate]) / λmax change: spectral analysis, Excitation 300-500, Emission 545; for carbohydrate can be detected and/or differentiated by the LCO: conclusion from change in signal magnitude and/or shift in λmax; for Gradient Parameters (gradient of regression line) / Linear relationship / Quality of Gradient: linear regression
In short: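 Each LCO probe at 3 μM was added to two-fold serial dilutions of carbohydrate in dH2O (10–0.039 mg/ml for β-1,3-glucan, cellulose, chitin; 5–0.019 mg/ml for the others), run in triplicate. Excitation spectra were scanned 300–500 nm with emission at 545 nm. Detection was a reproducible λmax and/or RFU shift versus negative control, with linear regression of RFU against concentration.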

[4] = remark: listed apart in the source
In short: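 LCO probes at 3 μM mixed with serial two-fold carbohydrate dilutions in water (10–0.039 or 5–0.019 mg/ml), run in triplicate. Excitation scanned 300–500 nm with emission at 545 nm; detection based on reproducible λmax or RFU shift against the no-carbohydrate control, with linear regression of RFU on concentration.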

[5] = for RFU change (Correlation analysis): probe-specific excitation λ, emission 545 nm
In short: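 LCO probes at 3 μM mixed with serial two-fold dilutions of carbohydrate in dH2O (10–0.039 or 5–0.019 mg/ml, depending on carbohydrate), in triplicate. Excitation scanned 300–500 nm or fixed per probe (λmax or lowest background), emission at 545 nm. Detection taken as reproducible λmax/RFU shift vs no-carbohydrate control; RFU regressed linearly on concentration.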

[6] = remark: listed apart in the source
In short: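 LCO probes (3 μM) were added to serial two-fold dilutions of carbohydrate suspensions in dH2O, with excitation scanned 300–500 nm and emission at 545 nm. Detection was a reproducible λmax and/or RFU change versus no-carbohydrate control. RFU was regressed linearly against concentration at the λmax or the lowest-background excitation.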

[7] = Chondroitin Sulfate A 5-0.019 mg/ml, 3 μM probe, spectral analysis, Excitation 300-500, Emission 545
[8] = Chondroitin Sulfate A concentration vs RFU, linear regression
[9] = β-1,3-glucan concentration vs RFU
[10] = glucose concentration vs RFU, linear regression
[11] = Cellulobiose 5-0.019 mg/ml, 3 μM probe, spectral analysis, Excitation 300-500, Emission 545
[12] = amylose concentration vs RFU, linear regression
[13] = sodium alginate concentration vs RFU, linear regression

SMILES: NCCCC[C@H](NC(=O)Cc1cc(-c2cccs2)sc1-c1ccc(-c2sc(-c3cccs3)cc2CC(=O)N[C@@H](CCCCN)C(=O)[O-])s1)C(=O)[O-].[Na+].[Na+] [pHTA-Lys, penta Hydrogen Thiophene Acetic acid Lysine]
- RFU change (Correlation analysis) ([1]; Glycogen 5-0.019 mg/ml): Increases
- RFU change (Signal deviation with increasing [Carbohydrate]) ([1]; Glycogen 5-0.019 mg/ml): Increases
- carbohydrate can be detected and/or differentiated by the LCO ([1]; Glycogen, conclusion from change in signal magnitude and/or shift in λmax): can be detected and/or differentiated
- RFU change (Correlation analysis) ([1]; Heparin 5-0.019 mg/ml): Increases
- RFU change (Signal deviation with increasing [Carbohydrate]) ([1]; Heparin 5-0.019 mg/ml): Increases
- Gradient Parameters (gradient of regression line) ([1]; glycogen concentration vs RFU): 43.6 ± 7.9
- Linear relationship ([1]; glycogen concentration vs RFU): Significant
- Quality of Gradient ([1]; glycogen concentration vs RFU): Positive
- Gradient Parameters (gradient of regression line) ([1]; heparin concentration vs RFU): 48.4 ± 18.2
- Linear relationship ([1]; heparin concentration vs RFU): Significant
- Quality of Gradient ([1]; heparin concentration vs RFU): Positive
- Sensitivity ([1]; to glycogen): Yes
- Sensitivity ([1]; to heparin): Yes
- RFU change (Correlation analysis) ([2]; Chondroitin Sulfate A 5-0.019 mg/ml, 3 μM probe, probe-specific excitation λ, emission 545 nm): Increases
- RFU change (Signal deviation with increasing [Carbohydrate]) [2, 7]: Decreases
- λmax change [2, 7]: No change
- Gradient Parameters (gradient of regression line) [2, 8]: 194.8 ± 19.2
- Linear relationship [2, 8]: Significant
- Quality of Gradient [2, 8]: Positive
- carbohydrate can be detected and/or differentiated by the LCO ([2]; Chondroitin sulfate A, conclusion from change in signal magnitude and/or shift in λmax): can be detected and/or differentiated
- Sensitivity ([2]; to Chondroitin Sulfate A): Yes
- RFU change (Correlation analysis) ([3]; Cellulose 10-[…]): Increase
- RFU change (Signal deviation with increasing [Carbohydrate]) ([3]; Cellulose 10-[…]): Increase
- λmax change ([3]; Cellulose 10-[…]): Redshift
- carbohydrate can be detected and/or differentiated by the LCO ([3]; Cellulose): can be detected and/or differentiated
- RFU change (Correlation analysis) ([3]; Chitin 10-[…]): Increases
- RFU change (Signal deviation with increasing [Carbohydrate]) ([3]; Chitin 10-[…]): Increases
- λmax change ([3]; Chitin 10-[…]): Redshift
- carbohydrate can be detected and/or differentiated by the LCO ([3]; Chitin): can be detected and/or differentiated
- Gradient Parameters (gradient of regression line) ([3]; cellulose concentration vs RFU): 291.8 ± 46.6
- Linear relationship ([3]; cellulose concentration vs RFU): Significant
- Quality of Gradient ([3]; cellulose concentration vs RFU): Positive
- Gradient Parameters (gradient of regression line) ([3]; chitin concentration vs RFU): 273.8 ± 46.2
- Linear relationship ([3]; chitin concentration vs RFU): Significant
- Quality of Gradient ([3]; chitin concentration vs RFU): Positive
- Sensitivity ([3]; to cellulose): Yes
- Sensitivity ([3]; to chitin): Yes
- Sensitivity ([3]; to β-1,3-glucan): Yes
- carbohydrate can be detected and/or differentiated by the LCO ([3]; β-1,3-Glucan): can be detected and/or differentiated
- RFU change (Correlation analysis) ([3]; β-1,3-glucan 10-[…]): Increase
- RFU change (Signal deviation with increasing [Carbohydrate]) ([3]; β-1,3-glucan 10-[…]): Decrease
- Gradient Parameters (gradient of regression line) [3, 9]: 107.9 ± 16.4
- Quality of Gradient [3, 9]: Positive
- RFU change (Correlation analysis) ([4]; Glucose 5-0.019 mg/ml, 3 μM probe, probe-specific excitation λ, emission 545 nm): Unclear
- RFU change (Signal deviation with increasing [Carbohydrate]) ([4]; Glucose 5-0.019 mg/ml, 3 μM probe, spectral analysis, Excitation 300-500, Emission 545): Unclear
- Gradient Parameters (gradient of regression line) [4, 10]: 23.6 ± 13.7
- Quality of Gradient [4, 10]: Horizontal
- Sensitivity ([4]; to glucose): No
- RFU change (Correlation analysis) ([5]; Amylose 5-0.019 mg/ml, 3 μM probe): Increases
- RFU change (Signal deviation with increasing [Carbohydrate]) ([5]; Amylose 5-0.019 mg/ml, 3 μM probe, spectral analysis, Excitation 300-500, Emission 545): Increases
- carbohydrate can be detected and/or differentiated by the LCO ([5]; Amylose, conclusion from change in signal magnitude and/or shift in λmax): can be detected and/or differentiated
- RFU change (Correlation analysis) ([5]; Cellulobiose 5-0.019 mg/ml, 3 μM probe): Unclear
- RFU change (Signal deviation with increasing [Carbohydrate]) [5, 11]: Unclear
- λmax change [5, 11]: No change
- Gradient Parameters (gradient of regression line) [5, 12]: 47.7 ± 18.5
- Linear relationship [5, 12]: Significant
- Quality of Gradient [5, 12]: Positive
- Quality of Gradient ([5]; cellulobiose concentration vs RFU, linear regression): Horizontal
- Sensitivity ([5]; to amylose): Yes
- Sensitivity ([5]; to cellulobiose): No
- RFU change (Correlation analysis) ([6]; Sodium alginate 5-0.019 mg/ml, 3 μM probe, probe-specific excitation λ, emission 545 nm): Increases
- RFU change (Signal deviation with increasing [Carbohydrate]) ([6]; Sodium alginate 5-0.019 mg/ml, 3 μM probe, spectral analysis, Excitation 300-500, Emission 545): Increases
- carbohydrate can be detected and/or differentiated by the LCO ([6]; Sodium alginate, conclusion from change in signal magnitude and/or shift in λmax): can be detected and/or differentiated
- Gradient Parameters (gradient of regression line) [6, 13]: 55.4 ± 5.3
- Linear relationship [6, 13]: Significant
- Quality of Gradient [6, 13]: Positive
- Sensitivity ([6]; to sodium alginate): Yes
